Earlier results in US20100317522A1, “Adjuvants for Agrochemical Applications” (COGNIS IP […], priority 2007, published 2010).

Conditions: rat, oral (WHO)

For `O=C(O)CNCP(=O)(O)O` [Glyphosate, N-(phosphonomethyl)glycine], the LD50 is listed as 4320 mg/kg.
